Data from PubChem BioAssay (NCI).
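Interpolation was linear, between the two tested concentrations surrounding the appropriate level; five concentrations were tested over 48 hours in 96-well plates. GI50 is the concentration that inhibits growth by half. Definition used: TGI = concentration required for complete inhibition of growth.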

Columns and labels:
Assay in all cases: DTP human tumour cell line panel, 48 h; in the data active = GI50 below about 0.43 µM; inactive = the rest
[1] = system: ACHN renal
[2] = system: RXF 393 renal
[3] = system: U251 CNS
[4] = system: UACC-62 melanoma
[5] = system: SK-MEL-28 melanoma
[6] = system: A549 NSCLC
[7] = system: M14 melanoma
[8] = system: T-47D breast
[9] = system: 786-0 renal
[10] = system: SK-MEL-5 melanoma
[11] = system: SN12C renal
[12] = system: HT29 colon
[13] = system: MALME-3M melanoma
[14] = system: K-562 leukemia
[15] = system: SW-620 colon
[16] = system: SK-OV-3 ovarian
[17] = system: OVCAR-4 ovarian
[18] = system: MDA-MB-435
[19] = system: HOP-62 NSCLC
[20] = system: NCI-H460 lung
[21] = system: SR leukemia
[22] = system: PC-3 prostate
[23] = system: HCT-116 colon
[24] = system: KM12 colon
[25] = system: COLO 205 colon
[26] = system: NCI-H522 lung
[27] = system: SNB-75 CNS
[28] = system: SF-268 CNS
[29] = system: BT-549 breast
[30] = system: TK-10 renal
[31] = system: RPMI-8226 leukemia
[32] = system: HCT-15 colon
[33] = system: NCI/ADR-RES ovarian
[34] = system: SNB-19 CNS
[35] = system: NCI-H23 lung
[36] = system: SK-MEL-2 melanoma
[37] = system: OVCAR-3 ovarian
[38] = system: HCC-2998 colon
[39] = system: OVCAR-8 ovarian
[40] = system: A498 renal
[41] = system: OVCAR-5 ovarian
[42] = system: DU-145 prostate
[43] = system: SF-295 CNS
[44] = system: MCF7 breast
[45] = system: EKVX NSCLC
[46] = system: UACC-257 melanoma
[47] = system: LOX IMVI melanoma
[48] = system: MDA-MB-231 breast
[49] = system: NCI-H226 lung
[50] = system: HL-60(TB) leukemia
[51] = system: MOLT-4 leukemia
[52] = system: HS 578T breast
[53] = system: UO-31 renal
[54] = system: CAKI-1 renal
[55] = system: SF-539 CNS
[56] = system: IGROV1 ovarian
[57] = system: CCRF-CEM leukemia

Oc1c(CN2CCCCC2)ccc2cccnc12
21.3 µM: TGI [40]
74.3 µM: TGI [27]
28.1 µM: TGI [6]
14.8 µM: TGI [44]
5.42 µM: TGI [53]
9.18 µM: TGI [23]
3.23 µM: TGI [54]
> 100 µM: TGI [1] | TGI [5] | TGI [9] | TGI [11] | TGI [14] | TGI [21] | TGI [22] | TGI [28] | TGI [29] | TGI [34] | TGI [48] | TGI [51] | TGI [52] | TGI [57]
25 µM: TGI [16]
30.9 µM: TGI [3]
76.9 µM: TGI [41]
8.22 µM: TGI [37]
15 µM: TGI [25]
51.4 µM: TGI [4]
83.3 µM: TGI [46]
10.9 µM: TGI [26] | TGI [33]
39.5 µM: TGI [55]
7.62 µM: TGI [20]
24.4 µM: TGI [36]
19.6 µM: TGI [12] | TGI [24]
16 µM: TGI [49]
82.9 µM: TGI [32]
12.8 µM: TGI [50]
21.4 µM: TGI [18]
37.4 µM: TGI [45]
31 µM: TGI [8] | TGI [31]
17.3 µM: TGI [47]
18 µM: TGI [15]
36.1 µM: TGI [35]
8.06 µM: TGI [7]
36.4 µM: TGI [42]
52.5 µM: TGI [13]
inactive: GI50 [1] 1.87 µM | GI50 [2] 4.15 µM | GI50 [3] 3.61 µM | GI50 [4] 3.95 µM | GI50 [5] 9.23 µM | GI50 [6] 3.72 µM | GI50 [7] 2.3 µM | GI50 [8] 3.63 µM | GI50 [9] 2.72 µM | GI50 [10] 3.56 µM | GI50 [11] 4.62 µM | GI50 [12] 4.88 µM | GI50 [13] 7.18 µM | GI50 [14] 3.63 µM | GI50 [15] 4.26 µM | GI50 [16] 4.33 µM | GI50 [17] 2.98 µM | GI50 [18] 4.65 µM | GI50 [19] 3.75 µM | GI50 [20] 2.31 µM | GI50 [21] 3.36 µM | GI50 [22] 7.12 µM | GI50 [23] 2.73 µM | GI50 [24] 3.91 µM | GI50 [25] 3.64 µM | GI50 [26] 3.6 µM | GI50 [27] 5.67 µM | GI50 [28] 6.07 µM | GI50 [29] 10.4 µM | GI50 [30] 3.98 µM | GI50 [31] 3.71 µM | GI50 [32] 0.728 µM | GI50 [33] 0.955 µM | GI50 [34] 8.86 µM | GI50 [35] 6.84 µM | GI50 [36] 4.03 µM | GI50 [37] 2.41 µM | GI50 [38] 6.6 µM | GI50 [39] 3.18 µM | GI50 [40] 5.46 µM | GI50 [41] 5.23 µM | GI50 [42] 5.42 µM | GI50 [43] 2.69 µM | GI50 [44] 3.38 µM | GI50 [45] 3.26 µM | GI50 [46] 2.91 µM | GI50 [47] 3.6 µM | GI50 [48] 4.79 µM | GI50 [49] 2.41 µM | GI50 [50] 3.34 µM | GI50 [51] 3.97 µM | GI50 [52] 11.1 µM | GI50 [53] 0.566 µM | GI50 [54] 0.52 µM | GI50 [55] 4.89 µM | GI50 [56] 2.52 µM | GI50 [57] 3.21 µM
42.6 µM: TGI [10]
32.8 µM: TGI [38]
22.8 µM: TGI [39]
42.9 µM: TGI [30]
54.3 µM: TGI [19]
34.8 µM: TGI [2]
9.59 µM: TGI [17]
7.8 µM: TGI [56]
15.4 µM: TGI [43]

OCC#Cc1ccccc1C#Cc1ccc(C#Cc2ccccc2C#CCO)cc1
91.3 µM: TGI [42]
32.2 µM: TGI [29]
75.9 µM: TGI [41]
95.7 µM: TGI [40]
56.6 µM: TGI [37]
79.9 µM: TGI [36]
89.3 µM: TGI [31]
68.5 µM: TGI [19]
58.1 µM: TGI [48]
> 100 µM: TGI [1] | TGI [3] | TGI [4] | TGI [5] | TGI [6] | TGI [8] | TGI [11] | TGI [12] | TGI [13] | TGI [14] | TGI [15] | TGI [16] | TGI [17] | TGI [18] | TGI [20] | TGI [22] | TGI [24] | TGI [25] | TGI [26] | TGI [27] | TGI [28] | TGI [30] | TGI [32] | TGI [33] | TGI [34] | TGI [35] | TGI [39] | TGI [44] | TGI [46] | TGI [47] | TGI [49] | TGI [50] | TGI [53] | TGI [54] | TGI [56] | TGI [57]
82.6 µM: TGI [9]
39.6 µM: TGI [51]
59.3 µM: TGI [10]
49.5 µM: TGI [21]
62.6 µM: TGI [43]
58.7 µM: TGI [52]
inactive: GI50 [1] 36.2 µM | GI50 [3] 34 µM | GI50 [4] 58.6 µM | GI50 [5] > 100 µM | GI50 [6] 32.7 µM | GI50 [8] > 100 µM | GI50 [9] 32 µM | GI50 [10] 23.7 µM | GI50 [11] 31.6 µM | GI50 [12] 45.4 µM | GI50 [13] 98.9 µM | GI50 [14] 34 µM | GI50 [15] 38.1 µM | GI50 [16] 55.4 µM | GI50 [17] 65.8 µM | GI50 [18] > 100 µM | GI50 [19] 28.1 µM | GI50 [20] 28.3 µM | GI50 [21] 22 µM | GI50 [22] 30.7 µM | GI50 [23] 25.8 µM | GI50 [24] 95.8 µM | GI50 [25] > 100 µM | GI50 [26] 50.1 µM | GI50 [27] 85.1 µM | GI50 [28] 35.1 µM | GI50 [29] 0.68 µM | GI50 [30] 52.8 µM | GI50 [31] 26.4 µM | GI50 [32] > 100 µM | GI50 [33] 55.2 µM | GI50 [34] 50 µM | GI50 [35] 41.5 µM | GI50 [36] 36.2 µM | GI50 [37] 20 µM | GI50 [39] 79.1 µM | GI50 [40] 28.9 µM | GI50 [41] 30.4 µM | GI50 [42] 27.3 µM | GI50 [43] 22.7 µM | GI50 [44] 26.3 µM | GI50 [45] 34.6 µM | GI50 [46] 89.5 µM | GI50 [47] 48.1 µM | GI50 [48] 25.5 µM | GI50 [49] 56.8 µM | GI50 [50] 90.5 µM | GI50 [51] 15.9 µM | GI50 [52] 24.3 µM | GI50 [53] 36 µM | GI50 [54] 68.3 µM | GI50 [55] 34.9 µM | GI50 [56] 30.4 µM | GI50 [57] 38.1 µM
91.5 µM: TGI [55]
66.7 µM: TGI [23]
97.1 µM: TGI [45]
